Assay results as given in patent US20080275123A1, “N-HALOGENATED AMINO ACID FORMULATIONS” (ALCON RESEARCH, LTD., priority 2007, published 2008).

How the values were obtained:
C. albicans = test: Antimicrobial activity by standard microbiological analysis (viability after exposure to test agent); format: cell-based; details: when 10 mM TBAH phase transfer agent is added
Experimental: The antimicrobial activity of certain formulations described herein was evaluated by a standard microbiological analysis. For the evaluation, bacterial and fungal isolates were grown overnight on appropriate agar media as source of fresh cells. A suspension of these fresh cells was prepared in saline at approximately 1×10^8 cfu/mL. These suspensions were added directly to the test agents (various solutions of sodium 2,2-dimethyl-N,N-dichlorotaurine and control solutions). The initial concentration of cells in the test agent solutions was approximately 1×10^6 cfu/mL. The exposure of microorganisms to the test agent was conducted at room temperature for up to 60 minutes. At selected times, an aliquot was withdrawn and diluted into phosphate buffered saline at 4° C. Viability was determined following serial dilution and filtration onto Milliflex cassettes.

[1] = Partitioning experiment, aqueous solution / dichloromethane; format: physicochemical; details: 4 mM compound, pH 4; for Log P: dichloromethane/aqueous; for 2,2-dimethyl-N,N-dichlorotaurine in aqueous After Partitioning % 2,2-dimethyl-N,N-dichlorotaurine: equal volume dichloromethane overnight
Experimental: Example 6 provides evidence of ion pairing taking place between a N-halogenated amino acid and a phase transfer agent, and the resulting changes in partitioning behavior. The partitioning experiment can be used to evaluate a compound's apparent lipophilicity and the potential improvement in antimicrobial activity when used on tissue.
Aqueous solutions were prepared containing 0.1% (4 mM) sodium 2,2-dimethyl-N,N-dichlorotaurine, tetrabutylammonium hydroxide (TBAH) at 0 mM, 1 mM, 4 mM, or 10 mM, 5 mM sodium acetate, sodium chloride to adjust osmolality to isotonic, and sodium hydroxide and/or hydrochloric acid to adjust pH to 4.
These aqueous solutions were assayed for 2,2-dimethyl-N,N-dichlorotaurine by reverse phase high pressure liquid chromatography. Each solution was then combined with an equal volume of dichloromethane, mixed on a rocker overnight, and the aqueous phase reassayed. The percent loss of 2,2-dimethyl-N,N-dichlorotaurine from the aqueous phase and theoretical percent of 2,2-dimethyl-N,N-dichlorotaurine partitioning to the dichloromethane were calculated and plotted versus the concentration of TBAH.
The theoretical percentage of 2,2-dimethyl-N,N-dichlorotaurine in dichloromethane phase is calculated as 100 percent minus the percent remaining in aqueous phase. FIG. 2 graphically illustrates the results of the above-described partitioning experiment. When 4 mM 2,2-dimethyl-N,N-dichlorotaurine in aqueous solution is combined with varying concentrations of TBAH, the quantity of 2,2-dimethyl-N,N-dichlorotaurine found in the aqueous solution decreases. Without added TBAH, almost all the 2,2-dimethyl-N,N-dichlorotaurine is found in the aqueous fraction. However, with 10 mM TBAH, most of the 2,2-dimethyl-N,N-dichlorotaurine has left the aqueous fraction and partitioned to the dichloromethane. This experiment is evidence of ion pair formation with TBAH phase transfer agent, which increases the apparent lipophilicity of the 2,2-dimethyl-N,N-dichlorotaurine.

Question: What does the source list for CC(C)(CS(=O)(=O)O)N(Cl)Cl [2,2-dimethyl-N,N-dichlorotaurine]?
Answer: antimicrobial activity (FIG. 1) (C. albicans): dramatically increased; 2,2-dimethyl-N,N-dichlorotaurine in aqueous After Partitioning % in Aqueous ([1]; TBAH 0 mM): 96.1%; 2,2-dimethyl-N,N-dichlorotaurine in aqueous Before Partitioning % 2,2-dimethyl-N,N-dichlorotaurine ([1]; TBAH 0 mM): 0.1007%; Calculated 2,2-dimethyl-N,N-dichlorotaurine % in CH2Cl2 After Partitioning Theory % in Dichloromethane ([1]; TBAH 0 mM): 3.9%; Log P ([1]; TBAH 0 mM): −1.39; 2,2-dimethyl-N,N-dichlorotaurine in aqueous After Partitioning % 2,2-dimethyl-N,N-dichlorotaurine ([1]; TBAH 0 mM): 0.09675%; 2,2-dimethyl-N,N-dichlorotaurine in aqueous After Partitioning % in Aqueous ([1]; TBAH 1 mM): 76.1%; 2,2-dimethyl-N,N-dichlorotaurine in aqueous Before Partitioning % 2,2-dimethyl-N,N-dichlorotaurine ([1]; TBAH 1 mM): 0.1008%; Calculated 2,2-dimethyl-N,N-dichlorotaurine % in CH2Cl2 After Partitioning Theory % in Dichloromethane ([1]; TBAH 1 mM): 23.9%; Log P ([1]; TBAH 1 mM): −0.50; 2,2-dimethyl-N,N-dichlorotaurine in aqueous After Partitioning % 2,2-dimethyl-N,N-dichlorotaurine ([1]; TBAH 1 mM): 0.07672%; 2,2-dimethyl-N,N-dichlorotaurine in aqueous After Partitioning % in Aqueous ([1]; TBAH 4 mM): 35.4%; 2,2-dimethyl-N,N-dichlorotaurine in aqueous Before Partitioning % 2,2-dimethyl-N,N-dichlorotaurine ([1]; TBAH 4 mM): 0.1008%; Calculated 2,2-dimethyl-N,N-dichlorotaurine % in CH2Cl2 After Partitioning Theory % in Dichloromethane ([1]; TBAH 4 mM): 64.6%; Log P ([1]; TBAH 4 mM): 0.26; 2,2-dimethyl-N,N-dichlorotaurine in aqueous After Partitioning % 2,2-dimethyl-N,N-dichlorotaurine ([1]; TBAH 4 mM): 0.03573%; 2,2-dimethyl-N,N-dichlorotaurine in aqueous After Partitioning % in Aqueous ([1]; TBAH 10 mM): 11.9%; 2,2-dimethyl-N,N-dichlorotaurine in aqueous Before Partitioning % 2,2-dimethyl-N,N-dichlorotaurine ([1]; TBAH 10 mM): 0.1009%; Calculated 2,2-dimethyl-N,N-dichlorotaurine % in CH2Cl2 After Partitioning Theory % in Dichloromethane ([1]; TBAH 10 mM): 88.1%; Log P ([1]; TBAH 10 mM): 0.87; 2,2-dimethyl-N,N-dichlorotaurine in aqueous After Partitioning % 2,2-dimethyl-N,N-dichlorotaurine ([1]; TBAH 10 mM): 0.01198%
